Legend:
green foxtail = test: Test Example 5: herbicidal effect by foliage application, plastic box (Table 20, symbol G); assay type: in vivo, green foxtail (Setaria viridis); conditions: amount of applied herbicide 320 g/ha; foliage application after 14-day growth; evaluated three weeks after application
Summary of the method: (§1)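 Post-emergence foliar test in sterilized diluvial soil. Compound applied as water-diluted emulsion at a predetermined rate to 14-day-old plants; evaluation at three weeks.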

rice flat sedge = test: Test Example 3: herbicidal effect by foliage application, Wagner pot (Table 18, symbol E); assay type: in vivo, rice flat sedge (Cyperus iria); conditions: 320 g/ha
Summary of the method: (§2)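 Plants were sown in alluvial soil held under 0.1–0.5 cm standing water and grown 14 days in a greenhouse at 25–30 °C. An emulsifiable formulation, water-diluted to the set dose, was then sprayed onto the foliage, and effects were scored three weeks later using previously defined criteria.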

redroot pigweed = test: Test Example 5: herbicidal effect by foliage application, plastic box (Table 20, symbol N); assay type: in vivo, redroot pigweed (Amaranthus retroflexus); conditions: amount of applied herbicide 320 g/ha; foliage application after 14-day growth; evaluated three weeks after application
Summary of the method: as §1

chickweed = test: Test Example 5: herbicidal effect by foliage application, plastic box (Table 20, symbol P); assay type: in vivo, common chickweed (Stellaria media); conditions: amount of applied herbicide 320 g/ha; foliage application after 14-day growth; evaluated three weeks after application
Summary of the method: as §1

velvetleaf = test: Test Example 5: herbicidal effect by foliage application, plastic box (Table 20, symbol M); assay type: in vivo, velvetleaf (Abutilon theophrasti); conditions: amount of applied herbicide 320 g/ha; foliage application after 14-day growth; evaluated three weeks after application
Summary of the method: as §1

southern crabgrass = test: Test Example 5: herbicidal effect by foliage application, plastic box (Table 20, symbol F); assay type: in vivo, southern crabgrass (Digitaria ciliaris); conditions: amount of applied herbicide 320 g/ha; foliage application after 14-day growth; evaluated three weeks after application
Summary of the method: as §1

barnyard grass [1] = test: Test Example 5: herbicidal effect by foliage application, plastic box (Table 20, symbol H); assay type: in vivo, barnyard grass (Echinochloa crus-galli); conditions: amount of applied herbicide 320 g/ha; foliage application after 14-day growth; evaluated three weeks after application
Summary of the method: as §1

wild oat = test: Test Example 5: herbicidal effect by foliage application, plastic box (Table 20, symbol I); assay type: in vivo, wild oat (Avena fatua); conditions: amount of applied herbicide 320 g/ha; foliage application after 14-day growth; evaluated three weeks after application
Summary of the method: as §1

blackgrass = test: Test Example 5: herbicidal effect by foliage application, plastic box (Table 20, symbol J); assay type: in vivo, blackgrass (Alopecurus myosuroides); conditions: amount of applied herbicide 320 g/ha; foliage application after 14-day growth; evaluated three weeks after application
Summary of the method: as §1

windgrass = test: Test Example 5: herbicidal effect by foliage application, plastic box (Table 20, symbol L); assay type: in vivo, windgrass (Apera spica-venti); conditions: amount of applied herbicide 320 g/ha; foliage application after 14-day growth; evaluated three weeks after application
Summary of the method: as §1

Italian ryegrass = test: Test Example 5: herbicidal effect by foliage application, plastic box (Table 20, symbol K); assay type: in vivo, Italian ryegrass (Lolium multiflorum); conditions: amount of applied herbicide 320 g/ha; foliage application after 14-day growth; evaluated three weeks after application
Summary of the method: as §1

Chinese sprangletop = test: Test Example 3: herbicidal effect by foliage application, Wagner pot (Table 18, symbol D); assay type: in vivo, chinese sprangletop (Leptochloa chinensis); conditions: 320 g/ha
Summary of the method: as §2

persian speedwell = test: Test Example 5: herbicidal effect by foliage application, plastic box (Table 20, symbol R); assay type: in vivo, Persian speedwell (Veronica persica); conditions: amount of applied herbicide 320 g/ha; foliage application after 14-day growth; evaluated three weeks after application
Summary of the method: as §1

barnyard grass [2] = test: Test Example 3: herbicidal effect by foliage application, Wagner pot (Table 18, symbol H); assay type: in vivo, barnyard grass (Echinochloa crus-galli); conditions: 320 g/ha
Summary of the method: as §2

lambsquarters = test: Test Example 5: herbicidal effect by foliage application, plastic box (Table 20, symbol O); assay type: in vivo, lambsquarters (Chenopodium album); conditions: amount of applied herbicide 320 g/ha; foliage application after 14-day growth; evaluated three weeks after application
Summary of the method: as §1

Compound | Herbicidal effect by foliage application, G: green foxtail (green foxtail) | herbicidal effect on rice flat sedge (E) (rice flat sedge) | Herbicidal effect by foliage application, N: redroot pigweed (redroot pigweed) | Herbicidal effect by foliage application, P: chickweed (chickweed) | Herbicidal effect by foliage application, M: velvetleaf (velvetleaf) | Herbicidal effect by foliage application, F: southern crabgrass (southern crabgrass) | Herbicidal effect by foliage application, H: barnyard grass (barnyard grass [1]) | Herbicidal effect by foliage application, I: wild oat (wild oat) | Herbicidal effect by foliage application, J: blackgrass (blackgrass) | Herbicidal effect by foliage application, L: windgrass (windgrass) | Herbicidal effect by foliage application, K: Italian ryegrass (Italian ryegrass) | herbicidal effect on Chinese sprangletop (D) (Chinese sprangletop) | Herbicidal effect by foliage application, R: persian speedwell (persian speedwell) | herbicidal effect on barnyard grass (H) (barnyard grass [2]) | Herbicidal effect by foliage application, O: lambsquarters (lambsquarters)
CCSc1cccc(-c2sc3c(C)cccc3c2-c2c(O)c(C)nn(C)c2=O)c1 [4-122] | 1 (Herbicidal rate of 5% or more and less than 20%) | 4 (Herbicidal rate of 70% or more and less than 90%) | 4 (Herbicidal rate of 70% or more and less than 90%) | 5 (Herbicidal rate of 90% or more (almost completely withered)) | 4 (Herbicidal rate of 70% or more and less than 90%) | 3 (Herbicidal rate of 40% or more and less than 70%) | 1 (Herbicidal rate of 5% or more and less than 20%) | 0 (Herbicidal rate of 5% or less (almost no effect)) | 1 (Herbicidal rate of 5% or more and less than 20%) | 4 (Herbicidal rate of 70% or more and less than 90%) | 4 (Herbicidal rate of 70% or more and less than 90%) | 0 (Herbicidal rate of 5% or less (almost no effect)) | 4 (Herbicidal rate of 70% or more and less than 90%) | 5 (Herbicidal rate of 90% or more (almost completely withered)) | 4 (Herbicidal rate of 70% or more and less than 90%)
Cc1nn(C)c(=O)c(-c2c(-c3ccc(C(C)C)cc3)sc3cc(F)c(F)cc23)c1O [5-005] | 0 (Herbicidal rate of 5% or less (almost no effect)) | 4 (Herbicidal rate of 70% or more and less than 90%) | 3 (Herbicidal rate of 40% or more and less than 70%) | 5 (Herbicidal rate of 90% or more (almost completely withered)) | 3 (Herbicidal rate of 40% or more and less than 70%) | 0 (Herbicidal rate of 5% or less (almost no effect)) | 0 (Herbicidal rate of 5% or less (almost no effect)) | 0 (Herbicidal rate of 5% or less (almost no effect)) | 0 (Herbicidal rate of 5% or less (almost no effect)) | 0 (Herbicidal rate of 5% or less (almost no effect)) | 0 (Herbicidal rate of 5% or less (almost no effect)) | 5 (Herbicidal rate of 90% or more (almost completely withered)) | 4 (Herbicidal rate of 70% or more and less than 90%) | 3 (Herbicidal rate of 40% or more and less than 70%) | 0 (Herbicidal rate of 5% or less (almost no effect))
CCCC(=O)Oc1c(C)nn(C)c(=O)c1-c1c(-c2ccc(C(C)C)cc2)sc2cc(F)c(F)cc12 [5-006] | 0 (Herbicidal rate of 5% or less (almost no effect)) | 3 (Herbicidal rate of 40% or more and less than 70%) | 3 (Herbicidal rate of 40% or more and less than 70%) | 4 (Herbicidal rate of 70% or more and less than 90%) | 3 (Herbicidal rate of 40% or more and less than 70%) | 0 (Herbicidal rate of 5% or less (almost no effect)) | 0 (Herbicidal rate of 5% or less (almost no effect)) | 0 (Herbicidal rate of 5% or less (almost no effect)) | 0 (Herbicidal rate of 5% or less (almost no effect)) | 0 (Herbicidal rate of 5% or less (almost no effect)) | 0 (Herbicidal rate of 5% or less (almost no effect)) | 1 (Herbicidal rate of 5% or more and less than 20%) | 1 (Herbicidal rate of 5% or more and less than 20%) | 4 (Herbicidal rate of 70% or more and less than 90%) | 3 (Herbicidal rate of 40% or more and less than 70%)
Cc1nn(C)c(=O)c(-c2c(-c3ccc(C#N)cc3)sc3cc(Cl)c(Cl)cc23)c1O [5-049] | 2 (Herbicidal rate of 20% or more and less than 40%) | 0 (Herbicidal rate of 5% or less (almost no effect)) | 5 (Herbicidal rate of 90% or more (almost completely withered)) | 0 (Herbicidal rate of 5% or less (almost no effect)) | 1 (Herbicidal rate of 5% or more and less than 20%) | 0 (Herbicidal rate of 5% or less (almost no effect)) | 0 (Herbicidal rate of 5% or less (almost no effect)) | 0 (Herbicidal rate of 5% or less (almost no effect)) | 0 (Herbicidal rate of 5% or less (almost no effect)) | 3 (Herbicidal rate of 40% or more and less than 70%) | 0 (Herbicidal rate of 5% or less (almost no effect)) | 0 (Herbicidal rate of 5% or less (almost no effect)) | 0 (Herbicidal rate of 5% or less (almost no effect)) | 3 (Herbicidal rate of 40% or more and less than 70%) | 4 (Herbicidal rate of 70% or more and less than 90%)

Source: patent publication US20230085307A1, “PYRIDAZINONE COMPOUND AND HERBICIDE” (NISSAN CHEMICAL CORPORATION, priority 2019, published 2023)
